Results reported in ChEMBL document CHEMBL6087478, “Chain Length Does Matter: Development of High-Potency QS-21-Based Vaccine Adjuvants” (J Med Chem, 2025).
Calls of active or inactive are those of the source. The calls are words filed in the database; no cut-off is given here.

How the values were obtained:
[1] = test system: Mus musculus; assay: Adjuvant activity in OVA-immunized female C57BL/6 mouse assessed as induction of antigen-specific Th1 immune responses by measuring increase in anti-OVA specific IgG2b in serum at 50 ug, IM co-administered with OVA antigen on day 0,7 and 14 and measured on day 21 by ELISA method; type: functional, organism-based; settings: dose 50.0 µg, time 21.0 day
[2] = Toxicity in C57BL/6 mouse assessed as effect on body weight change at 50 ug, IM in presence of KLH measured upto 7 days; settings: in vivo, 168 h, dose 50 µg, time < 7 day
[3] = test system: Mus musculus; assay: Adjuvant activity in OVA-immunized female C57BL/6 mouse assessed as increase in IgG2b antibody titer at 50 ug, IM co-administered with OVA antigen on day 0,7 and 14 and measured on day 14,28,42 by ELISA method; type: functional, organism-based; settings: dose 50.0 µg, time 42.0 day
[4] = test system: Mus musculus; assay: Adjuvant activity in OVA-immunized female C57BL/6 mouse assessed as increase IgG2b antibody titer at 50 ug, sc co-administered with OVA antigen on day 0,7 and 14 and measured on day 14,28,42 by ELISA method; type: functional, organism-based; settings: dose 50.0 µg, time 42.0 day
[5] = test system: Mus musculus; assay: Adjuvant activity in KLH-immunized female C57BL/6 mouse assessed as increase in serum IgG anti-KLH antibody titer at 50 ug, IM co-administered with KLH-antigen on day 0,7 and 14 and measured on day 14,28 and 42 by ELISA method; type: functional, organism-based; settings: dose 50.0 µg, time 42.0 day
[6] = test system: Mus musculus; assay: Adjuvant activity in OVA-immunized female C57BL/6 mouse assessed as induction of antigen-specific Th1 immune responses by measuring increase in anti-OVA specific IgG1 in serum at 50 ug, IM co-administered with OVA antigen on day 0,7 and 14 and measured on day 21 by ELISA method; type: functional, organism-based; settings: dose 50.0 µg, time 21.0 day
[7] = test system: Mus musculus; assay: Adjuvant activity in OVA-immunized female C57BL/6 mouse assessed as increase in serum IgG anti-OVA antibody response at 50 ug, IM co-administered with OVA antigen on day 0,7 and 14 and measured on day 21 by ELISA method; type: functional, organism-based; settings: dose 50.0 µg, time 21.0 day
[8] = test system: Mus musculus; assay: Adjuvant activity in OVA-immunized female C57BL/6 mouse assessed as increase IgG antibody titer at 50 ug, sc co-administered with OVA antigen on day 0,7 and 14 and measured on day 14,28,42 by ELISA method; type: functional, organism-based; settings: dose 50.0 µg, time 42.0 day
[9] = test system: Mus musculus; assay: Adjuvant activity in OVA-immunized female C57BL/6 mouse assessed as induction of antigen-specific Th2 immune responses by measuring increase in anti-OVA specific IgG1 in serum at 50 ug, IM co-administered with OVA antigen on day 0,7 and 14 and measured on day 21 by ELISA method; type: functional, organism-based; settings: dose 50.0 µg, time 21.0 day
[10] = Toxicity in C57BL/6 mouse assessed as effect on body weight change at 50 ug, IM in presence of OVA-antigen measured upto 7 days; settings: in vivo, 168 h, dose 50 µg, time < 7 day
[11] = test system: Mus musculus; assay: Adjuvant activity in OVA-immunized female C57BL/6 mouse assessed as increase in IgG antibody titer at 50 ug, IM co-administered with OVA antigen on day 0,7 and 14 and measured on day 14,28,42 by ELISA method; type: functional, organism-based; settings: dose 50.0 µg, time 42.0 day
[12] = Toxicity in C57BL/6 mouse assessed as effect on body weight change at 50 ug, sc in presence of OVA-antigen measured upto 7 days; type: organism-based; settings: in vivo, 168 h, dose 50 µg, time < 7 day
[13] = test system: Mus musculus; assay: Adjuvant activity in OVA-immunized female C57BL/6 mouse assessed as induction of antigen-specific Th2 immune responses by measuring increase in anti-OVA specific IgG2b in serum at 50 ug, IM co-administered with OVA antigen on day 0,7 and 14 and measured on day 21 by ELISA method; type: functional, organism-based; settings: dose 50.0 µg, time 21.0 day
[14] = Toxicity in C57BL/6 mouse assessed as effect on body weight change at 20 ug, sc in presence of OVA-antigen measured upto 7 days; type: organism-based; settings: in vivo, 168 h, dose 20 µg, time < 7 day
[15] = test system: Mus musculus; assay: Adjuvant activity in OVA-immunized female C57BL/6 mouse assessed as increase in serum IgG anti-OVA antibody response at 5 ug, IM co-administered with OVA antigen on day 0,7 and 14 and measured on day 14,28 and 42 by ELISA method; type: functional, organism-based; settings: dose 5.0 µg, time 42.0 day
[16] = test system: Mus musculus; assay: Adjuvant activity in OVA-immunized female C57BL/6 mouse assessed as increase in IgG antibody titer at low dose administered as IM co-administered with OVA antigen on day 0,7 and 14 and measured on day 14,28,42 by ELISA method; type: functional, organism-based; settings: time 42.0 day
[17] = test system: Mus musculus; assay: Adjuvant activity in OVA-immunized female C57BL/6 mouse assessed as increase IgG2b antibody titer at 20 ug, sc co-administered with OVA antigen on day 0,7 and 14 and measured on day 14,28,42 by ELISA method; type: functional, organism-based; settings: dose 20.0 µg, time 42.0 day
[18] = test system: Mus musculus; assay: Adjuvant activity in OVA-immunized female C57BL/6 mouse assessed as increase in serum IgG2b at low dose administered as IM dose co-administered with OVA antigen on day 0,7 and 14 and measured on day 14,28 and 42 by ELISA method; type: functional, organism-based; settings: time 42.0 day
[19] = test system: Mus musculus; assay: Potency index ratio of QS21 to test compound for adjuvant activity in KLH-immunized female C57BL/6 mouse assessed as increase in serum IgG anti-KLH antibody titer at 50 ug, IM co-administered with KLH-antigen on day 0,7 and 14 and measured on day 14,28 and 42 by ELISA method; type: functional; settings: dose 50 µg, time 42 day
[20] = test system: Mus musculus; assay: Adjuvant activity in OVA-immunized female C57BL/6 mouse assessed as increase in IgG2b antibody titer at low dose administered as IM co-administered with OVA antigen on day 0,7 and 14 and measured on day 14,28,42 by ELISA method; type: functional, organism-based; settings: time 42.0 day
[21] = test system: Mus musculus; assay: Adjuvant activity in OVA-immunized female C57BL/6 mouse assessed as increase in serum IgG1 at low dose administered as IM dose co-administered with OVA antigen on day 0,7 and 14 and measured on day 14,28 and 42 by ELISA method; type: functional, organism-based; settings: time 42.0 day
[22] = test system: Mus musculus; assay: Adjuvant activity in OVA-immunized female C57BL/6 mouse assessed as increase IgG antibody titer at 20 ug, sc co-administered with OVA antigen on day 0,7 and 14 and measured on day 14,28,42 by ELISA method; type: functional, organism-based; settings: dose 20.0 µg, time 42.0 day

Structure (SMILES) | Activity [1] | Activity [2] | Activity [4] | Activity [6] | Activity [7] | Activity [8] | Activity [9] | Activity [10] | Activity [12] | Activity [13] | Activity [17] | Activity [22] | also measured
C[C@@H]1O[C@@H](O[C@H]2[C@H](OC(=O)[C@]34CCC(C)(C)C[C@H]3C3=CC[C@@H]5[C@@]6(C)CC[C@H](O)[C@@](C)(C=O)[C@@H]6CC[C@@]5(C)[C@]3(C)CC4)O[C@H](CO)[C@H](NC(=O)CCCCCCCCCCCCC(=O)O)[C@@H]2O)[C@H](O)[C@H](O)[C@H]1O[C@@H]1OC[C@@H](O)[C@H](O)[C@H]1O | Active | Non-toxic | Active | Active | Active | Active | Active | Non-toxic | Non-toxic | Active |  |  | Activity [3]: Active; Activity [5]: Active; Activity [11]: Active
C[C@@H]1O[C@@H](O[C@H]2[C@H](OC(=O)[C@]34CCC(C)(C)C[C@H]3C3=CC[C@@H]5[C@@]6(C)CC[C@H](O)[C@@](C)(C=O)[C@@H]6CC[C@@]5(C)[C@]3(C)CC4)O[C@H](CO)[C@H](NC(=O)CCCCCCCCCCCCCCC(=O)O)[C@@H]2O)[C@H](O)[C@H](O)[C@H]1O[C@@H]1OC[C@@H](O)[C@H](O)[C@H]1O | Active | Non-toxic |  | Active | Active |  | Active | Non-toxic |  | Active | Active | Active | Activity [14]: Non-toxic; Activity [15]: Active; Activity [16]: Active; Activity [18]: Active; fold change (FC) [19]: 10; Activity [20]: Active; Activity [21]: Active
C[C@@H]1O[C@@H](O[C@H]2[C@H](OC(=O)[C@]34CCC(C)(C)C[C@H]3C3=CC[C@@H]5[C@@]6(C)CC[C@H](O)[C@@](C)(C=O)[C@@H]6CC[C@@]5(C)[C@]3(C)CC4)O[C@H](CO)[C@H](NC(=O)CCCCCCCCCCC(=O)O)[C@@H]2O)[C@H](O)[C@H](O)[C@H]1O[C@@H]1OC[C@@H](O)[C@H](O)[C@H]1O |  |  | Active |  |  | Active |  |  | Non-toxic |  |  |  | 
CC1(C)CC[C@]2(C(=O)O[C@@H]3O[C@H](CO)[C@@H](O)[C@H](O[C@@H]4O[C@H](CO)[C@@H](O)[C@H](O[C@@H]5O[C@H](CO)[C@@H](O)[C@H](O[C@@H]6O[C@H](CO)[C@@H](O)[C@H](O[C@@H]7O[C@H](CO)[C@@H](O)[C@H](O)[C@H]7O)[C@H]6O)[C@H]5O)[C@H]4O)[C@H]3O)[C@H](O)C[C@]3(C)C(=CC[C@@H]4[C@@]5(C)CC[C@H](O[C@@H]6O[C@H](CO)[C@@H](O)[C@H](O[C@@H]7O[C@H](CO)[C@@H](O)[C@H](O[C@@H]8O[C@H](CO)[C@@H](O)[C@H](O)[C@H]8O)[C@H]7O)[C@H]6O)[C@@](C)(C=O)[C@@H]5CC[C@]43C)[C@@H]2C1 |  |  |  |  |  |  |  |  |  |  | Active | Active | 
